# Where two headings read alike, the source gives them in different places. Non-standard residues stand in square brackets, D forms with d. Residues, ends and D or L forms follow the SMILES beside them. Orn = NCCC[C@H](N)C(=O)O; Aun = NCCCCCCCCCCC(=O)O; Ahx = NCCCCCC(=O)O; NEtG = CCNCC(=O)O
# Columns and labels:
# [1] = target: fixed activated platelets (Homo sapiens, UniProt P05106+P08514); test: Platelet Aggregation Assay (fibrinogen-mediated aggregation of fixed-activated platelets); assay type: cell-based
# Sequence of fixed activated platelets (P08514 32-1039): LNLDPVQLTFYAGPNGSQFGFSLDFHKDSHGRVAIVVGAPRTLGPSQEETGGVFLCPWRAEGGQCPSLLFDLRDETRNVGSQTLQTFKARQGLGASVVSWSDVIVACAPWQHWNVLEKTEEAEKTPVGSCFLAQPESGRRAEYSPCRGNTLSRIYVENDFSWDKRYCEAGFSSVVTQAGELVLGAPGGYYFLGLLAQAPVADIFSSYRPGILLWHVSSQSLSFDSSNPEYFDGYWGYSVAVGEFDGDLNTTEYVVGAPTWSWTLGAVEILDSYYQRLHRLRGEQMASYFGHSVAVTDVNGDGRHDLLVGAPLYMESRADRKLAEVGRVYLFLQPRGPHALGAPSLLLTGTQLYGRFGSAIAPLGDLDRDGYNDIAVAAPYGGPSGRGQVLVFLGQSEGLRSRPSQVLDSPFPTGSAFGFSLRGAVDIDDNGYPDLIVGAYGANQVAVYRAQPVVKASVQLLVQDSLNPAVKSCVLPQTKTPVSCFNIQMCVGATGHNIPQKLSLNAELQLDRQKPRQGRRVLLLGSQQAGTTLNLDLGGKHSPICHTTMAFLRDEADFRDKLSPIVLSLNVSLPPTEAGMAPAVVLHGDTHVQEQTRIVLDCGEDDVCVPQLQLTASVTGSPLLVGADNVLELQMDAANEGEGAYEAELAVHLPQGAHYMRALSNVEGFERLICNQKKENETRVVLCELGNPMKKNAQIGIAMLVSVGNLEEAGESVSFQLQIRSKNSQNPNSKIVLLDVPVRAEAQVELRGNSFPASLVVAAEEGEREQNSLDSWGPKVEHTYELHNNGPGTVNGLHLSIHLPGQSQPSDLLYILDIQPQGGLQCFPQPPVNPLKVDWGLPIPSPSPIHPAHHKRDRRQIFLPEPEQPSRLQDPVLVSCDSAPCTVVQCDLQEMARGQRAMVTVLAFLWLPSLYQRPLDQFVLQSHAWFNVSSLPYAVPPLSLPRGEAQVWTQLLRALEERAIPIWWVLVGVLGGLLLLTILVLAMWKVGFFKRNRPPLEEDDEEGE
# Sequence of fixed activated platelets (P05106 27-788): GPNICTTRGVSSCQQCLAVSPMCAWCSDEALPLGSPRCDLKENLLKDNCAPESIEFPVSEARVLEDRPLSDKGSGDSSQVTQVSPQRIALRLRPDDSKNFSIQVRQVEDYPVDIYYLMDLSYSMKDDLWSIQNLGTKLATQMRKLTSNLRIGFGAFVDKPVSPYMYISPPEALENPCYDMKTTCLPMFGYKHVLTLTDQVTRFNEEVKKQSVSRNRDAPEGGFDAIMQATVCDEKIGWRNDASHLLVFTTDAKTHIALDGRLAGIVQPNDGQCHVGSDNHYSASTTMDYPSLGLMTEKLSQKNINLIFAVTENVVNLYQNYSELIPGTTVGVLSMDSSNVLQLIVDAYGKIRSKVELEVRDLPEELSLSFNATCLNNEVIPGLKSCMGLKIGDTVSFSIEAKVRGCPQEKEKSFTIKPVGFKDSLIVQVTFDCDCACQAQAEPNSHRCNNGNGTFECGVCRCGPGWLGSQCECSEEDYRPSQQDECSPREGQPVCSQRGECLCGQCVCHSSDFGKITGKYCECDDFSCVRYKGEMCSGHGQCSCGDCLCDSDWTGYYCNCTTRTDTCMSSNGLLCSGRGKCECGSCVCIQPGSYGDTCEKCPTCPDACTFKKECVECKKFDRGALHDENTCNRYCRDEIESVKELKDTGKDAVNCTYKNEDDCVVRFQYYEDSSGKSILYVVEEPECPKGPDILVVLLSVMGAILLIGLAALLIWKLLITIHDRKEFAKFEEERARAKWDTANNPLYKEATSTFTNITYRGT
# Description: PLATELET AGGREGATION ASSAY
# Preparation of Fixed-Activated Platelets
# To the activated platelets is added paraformaldehyde to a final concentration of 0.50% and this incubated at room temperature for 30 minutes. The fixed activated platelets are then collected by centrifugation at 650×g for 15 minutes.
# Platelet Aggregation Assay
# The fixed activated platelets are incubated with a selected dose of the compound to be tested for platelet aggregation inhibition for one minute and aggregation initiated by addition of human fibrinogen to a final concentration of 250 μg/ml. A platelet aggregation profiler Model PAP-4 is used to record the platelet aggregation.
# [2] = target: thrombin-stimulated platelets (Homo sapiens, UniProt P05106+P08514); test: Fibrinogen-Binding Assay (125I-fibrinogen binding to platelets)
# Sequence of thrombin-stimulated platelets (P08514 32-1039): as the sequence (P08514 32-1039) above
# Sequence of thrombin-stimulated platelets (P05106 27-788): as the sequence (P05106 27-788) above
# Description: Platelets are washed free of plasma constituents by the albumin density-gradient technique of Walsh, P. N., et al., Br. J. Haematol. […] After these additions, the final platelet count in the mixture is 1×10^11 /liter. After incubation for an additional 30 minutes at 22°-25° C., bound and free ligand are separated by centrifuging 50 μl of the mixture through 300 μl of 20% sucrose at 12,000×g for 4 minutes. The platelet pellet is then separated from the rest of the mixture to determine platelet-bound radioactivity. Nonspecific binding is measured in mixtures containing an excess of unlabeled ligand. […] The IC50 is derived by plotting residual fibrinogen binding against the logarithm of the sample compound's concentration.
# [3] = fixed activated platelets, human fibrinogen 250 μg/ml; read-out: Inhibition of Fibrinogen Mediated Platelet Aggregation IC50
# [4] = read-out: Inhibition of Fibrinogen Mediated Platelet Aggregation % inhibition at 25 μM
# [5] = 125I-fibrinogen 0.176 μmol/liter, thrombin-stimulated platelets; read-out: Inhibition of 125I-Fibrinogen Binding to Platelets IC50
# [6] = read-out: Inhibition of Fibrinogen Mediated Platelet Aggregation % inhibition at 100 μM
smiles,measurement,setting,value
N=C(N)NCCCCCCCCC(=O)N[C@@H](CC(=O)O)C(=O)N[C@@H](CCCNC(=N)N)C(=O)O [9-Guanidinononanoyl-L-aspartyl-L-arginine],IC50,[1]; [3],260 nM
same,inhibition at 25 µM,[1]; [4],97%
same,IC50,[2]; [5],130 nM
N=C(N)NCCCCCCCCC(=O)N[C@@H](CC(=O)O)C(=O)NCCC(=O)N[C@@H](CCCNC(=N)N)C(=O)O [9-Guanidinononanoyl-L-aspartyl-β-alanyl-L-arginine],IC50,[1]; [3],1500 nM
same,inhibition at 25 µM,[1]; [4],93%
same,IC50,[2]; [5],640 nM
CC(C)[C@H](NC(=O)[C@H](CC(=O)O)NC(=O)CCCCCCCCCCN)C(=O)O [11-Aminoundecanoyl-L-aspartyl-L-valine] (H-[Aun]-Asp-Val-OH),IC50,[1]; [3],1700 nM
same,inhibition at 25 µM,[1]; [4],0.98%
same,IC50,[2]; [5],580 nM
CC(C)COC(=O)[C@H](CCCNC(=N)N)NC(=O)[C@H](CC(=O)O)NC(=O)CCCCCCCCNC(=N)N [9-guanidinononanoyl-L-aspartyl-L-arginine isobutyl ester],IC50,[1]; [3],540 nM
same,inhibition at 25 µM,[1]; [4],97%
same,IC50,[2]; [5],625 nM
"CCC(CC)(NC(=O)[C@H](CC(=O)O)NC(=O)CCCCCCCCNC(=N)N)C(=O)N[C@@H](CCCNC(=N)N)C(=O)O [9-Guanidinononanoyl-L-aspartyl-α,α-diethyl-glycyl-L-arginine]",IC50,[1]; [3],> 25000 nM
same,inhibition at 25 µM,[1]; [4],20%
same,IC50,[2]; [5],40000 nM
CC(C)CN(CC(=O)N[C@@H](CC(=O)O)C(=O)N[C@H](C(=O)O)C(C)C)C(=O)CCCCCNC(=N)N [6-Guanidinohexanoyl-N-isobutylglycyl-L-aspartyl-L-valine],IC50,[1]; [3],1500 nM
same,inhibition at 25 µM,[1]; [4],86%
same,IC50,[2]; [5],100 nM
CC(C)[C@H](NC(=O)[C@H](CC(=O)O)NC(=O)C=CCCCCCNC(=N)N)C(=O)O [8-Guanidinooct-2-enoyl-L-aspartyl-L-valine],IC50,[1]; [3],290 nM
same,inhibition at 25 µM,[1]; [4],96%
same,IC50,[2]; [5],840 nM
CC[C@H](C)[C@H](NC(=O)CNC(=O)[C@H](CC(=O)O)NC(=O)CCCCCCCCNC(=N)N)C(=O)O [9-Guanidinononanoyl-L-aspartyl-glycyl-L-isoleucine],IC50,[1]; [3],25000 nM
same,inhibition at 25 µM,[1]; [4],54%
same,IC50,[2]; [5],40000 nM
CCN(CC(=O)N[C@@H](CC(=O)O)C(=O)N[C@@H](CC(C)C)C(=O)O)C(=O)CCCCNC(=N)N [5-guanidinopentanoyl-N-(ethyl)-glycyl-L-aspartyl-L-leucine],IC50,[1]; [3],540 nM
same,inhibition at 25 µM,[1]; [4],90%
same,IC50,[2]; [5],390 nM
CC(C)[C@H](NC(=O)[C@H](CC(=O)O)NC(=O)CNC(=O)[C@@H](N)CCCCN)C(=O)O [L-Lysylglycyl-L-aspartyl-L-valine] (H-KGDV-OH),IC50,[1]; [3],> 25000 nM
same,inhibition at 25 µM,[1]; [4],8%
same,IC50,[2]; [5],60000 nM
CC(C)[C@H](NC(=O)[C@H](CC(=O)O)NC(=O)CNC(=O)[C@@H](N)CCCN)C(=O)O [L-ornithylglycyl-L-aspartyl-L-valine] (H-[Orn]GDV-OH),IC50,[1]; [3],15000 nM
same,inhibition at 100 µM,[1]; [6],80%
same,inhibition at 50 µg/mL,[2]; read-out: Inhibition of 125I-Fibrinogen Binding to Platelets: Inhibited <50% at 50 μg/ml,< 50%
CC(C)[C@H](NC(=O)[C@H](CC(=O)O)NC(=O)Cn1nnnc1CCCCCNC(=N)N)C(=O)O [[5-(5'-Guanidinopentyl)Tetrazol-1-yl]-Acetyl-L-Aspartyl-L-Valine],inhibition at 25 µM,[1]; [4],40%
same,IC50,"[1]; read-out: Inhibition of Fibrinogen Mediated Platelet Aggregation IC50; fixed activated platelets, human fibrinogen 250 μg/ml",> 25000 nM
same,IC50,"[2]; read-out: Inhibition of 125I-Fibrinogen Binding to Platelets IC50; 125I-fibrinogen 0.176 μmol/liter, thrombin-stimulated platelets",2200 nM
CCN(CC(=O)N[C@@H](CC(=O)O)C(=O)N[C@@H](CCCNC(=N)N)C(=O)O)C(=O)CCCCNC(=N)N [5-guanidino-N-(ethyl)-glycyl-L-aspartyl-L-arginine],IC50,[1]; [3],230 nM
same,inhibition at 25 µM,[1]; [4],93%
same,IC50,[2]; [5],1900 nM
CCCC(C)CN(CC(=O)N[C@@H](CC(=O)O)C(=O)N[C@H](C(=O)O)C(C)C)C(=O)CCCCCNC(=N)N (stereo partly drawn) [6-Guanidinohexanoyl-N-(2-methylpentyl)glycine-L-aspartic acid-L-valine],IC50,[1]; [3],10500 nM
same,inhibition at 25 µM,[1]; [4],86%
same,IC50,[2]; [5],> 200000 nM
CC(C)[C@H](NC(=O)[C@H](CC(=O)O)NC(=O)CN(C)C(=O)CCCCCn1ccnc1-c1ccccc1)C(=O)O [6-(2-Phenylimidazol-1-yl)hexanoyl-sarcosyl-L-aspartyl-L-valine],IC50,[1]; [3],5600 nM
same,inhibition at 25 µM,[1]; [4],84%
same,IC50,[2]; [5],380 nM
CC(C)[C@H](NC(=O)[C@H](CC(=O)O)NC(=O)CCCCCCCNC(=N)N)C(=O)O [8-Guanidinooctanoyl-L-aspartyl-L-valine],IC50,[1]; [3],2700 nM
same,inhibition at 25 µM,[1]; [4],89%
same,IC50,[2]; [5],2800 nM
CC(C)[C@H](NC(=O)[C@H](CC(=O)O)NC(=O)CN(C)C(=O)CCCCCNC(=N)N)C(=O)O [6-Guanidinohexanoyl-L-sarcosyl-L-aspartyl-L-valine],IC50,[1]; [3],630 nM
same,inhibition at 25 µM,[1]; [4],97%
same,IC50,[2]; [5],320 nM
CCN(CC(=O)N[C@@H](CC(=O)O)C(=O)N[C@H](C(=O)O)C(C)C)C(=O)CCCCCN [6-Aminohexanoyl-N-ethylglycyl-L-aspartyl-L-valine] (H-[Ahx][NEtG]DV-OH),IC50,[1]; [3],4100 nM
same,inhibition at 25 µM,[1]; [4],92%
same,IC50,[2]; [5],4000 nM
CC(C)[C@H](NC(=O)[C@H](CC(=O)O)NC(=O)CCCCCCCCCCCNC(=N)N)C(=O)O [12-Guanidinododecanoyl-L-aspartyl-L-valine],inhibition at 25 µM,[1]; [4],36%
same,IC50,[2]; [5],7000 nM
CC[C@H](C)[C@H](NC(=O)[C@H](CC(=O)O)NC(=O)CCCCCCCCNC(=N)N)C(=O)O [9-Guanidinononanoyl-L-aspartyl-L-isoleucine],IC50,[1]; [3],4200 nM
same,inhibition at 25 µM,[1]; [4],93%
same,IC50,[2]; [5],380 nM
CC(C)CNC(=O)[C@H](CC(=O)O)NC(=O)CNC(=O)[C@@H](N)CCCNC(=N)N [L-arginylglycyl-L-aspartyl-α-isobutylamide],IC50,[1]; [3],3600 nM
same,inhibition at 100 µM,[1]; [6],89%
same,IC50,[2]; [5],26500 nM
CCN(CC(=O)N[C@@H](CC(=O)O)C(=O)N[C@H](C(=O)O)C(C)C)C(=O)CCCNC(=N)N [4-Guanidinobutanoyl-N-(ethyl)glycyl-L-aspartyl-L-valine],IC50,[1]; [3],2700 nM
same,inhibition at 25 µM,[1]; [4],94%
same,IC50,[2]; [5],450 nM
CC(C)[C@H](NC(=O)[C@H](CC(=O)O)NC(=O)CNC(=O)CCCCNC(=N)N)C(=O)O [N-(5-guanidinopentanoyl)glycyl-L-aspartyl-L-valine],IC50,[1]; [3],2300 nM
same,inhibition at 100 µM,[1]; [6],92%
same,IC50,[2]; [5],700 nM
"CCN(CC(=O)N[C@@H](CC(=O)O)C(=O)NC(CC)(CC)C(=O)O)C(=O)CCCCCNC(=N)N [6-Guanidinohexanoyl-N-ethyl-glycyl-L-aspartyl-2,2-diethylglycine]",IC50,[1]; [3],11400 nM
same,inhibition at 25 µM,[1]; [4],73%
same,IC50,[2]; [5],5000 nM
CC[C@@H](C)[C@@H](NC(=O)[C@H](CC(=O)O)NC(=O)CCCCCCCCNC(=N)N)C(=O)N[C@@H](CCCNC(=N)N)C(=O)O [9-Guanidinononanoyl-L-aspartyl-D-isoleucyl-L-arginine],IC50,[1]; [3],13100 nM
same,inhibition at 25 µM,[1]; [4],75%
same,IC50,[2]; [5],10200 nM
CCN(CC(=O)N[C@@H](CC(=O)O)C(=O)N[C@H](C(=O)O)C(C)C)C(=O)CCCCNC(=N)N [5-Guanidinopentanoyl-N-ethylglycyl-L-aspartyl-L-valine],IC50,[1]; [3],630 nM
same,inhibition at 25 µM,[1]; [4],91%
same,IC50,[2]; [5],40 nM
CCN(CC(=O)N[C@@H](CC(=O)O)C(=O)N[C@H](C(=O)O)C(C)C)C(=O)CCCCCn1ccnc1C [6-(2-Methylimidazol-1-yl)hexanoyl-N-(ethyl)-glycyl-L-aspartyl-L-valine],IC50,[1]; [3],1900 nM
same,inhibition at 25 µM,[1]; [4],93%
same,IC50,[2]; [5],350 nM
CC(C)[C@H](NC(=O)[C@H](CC(=O)O)NC(=O)CCCCCCCCCNC(=N)N)C(=O)O [10-Guanidinodecanoyl-L-aspartyl-L-valine],IC50,[1]; [3],10300 nM
same,inhibition at 25 µM,[1]; [4],77%
same,IC50,[2]; [5],2500 nM
